This is an account of results in US20040048790A1, “Inducing cellular immune responses to p53 using peptide and nucleic acid compositions” (priority 1999, published 2004).

One assay concerns the target DRB1*0401 (Homo sapiens, UniProt P01903+P01911, A100K/A169T/F76Y/I96L/K127E/L162R/M171V/N62H/P40V/Q125Y/R42H/S133A/S149N/S66Y/V115G/V209L/W38E). As to the kind of experiment: biochemical.
The next assay deals with DRB1*0701 (Homo sapiens, UniProt P01903+P01911, A100R/A102G/A103Q/D57E/D86V/E43K/F76Y/K127E/L162R/M171V/P40G/Q125H/Q99D/R33Q/R42Y/R54Q/S133A/S66F/T210M/V115G/Y107V/Y59L/Y89S). Put plainly: biochemical.
The test system of assay [1] is target cells pulsed with wild-type peptide. Put plainly: CTL recognition of targets pulsed with the wildtype peptide (51Cr release). It counts as cell-based, human. The note with it: Number of donors yielding a positive response/total tested; Table XXVIIb.
Another assay addresses A*0202 (Homo sapiens, UniProt P04439, D140Y/D185E/D98H/E176V/E277Q/G131W/G231S/I119L/I121R/I166T/I218V/L180W/L300P/L318F/N151K/N90K/P208A/P217A/Q67R/Q86G/Q94H/R138H/R169H/T345S). As to the kind of experiment: biochemical.
Another assay deals with A*0203 (Homo sapiens, UniProt P04439, A173T/D140Y/D185E/D98H/E277Q/G131W/G231S/I119V/I121R/I166T/I218V/L180W/L300P/L318F/N151K/N90K/P208A/P217A/Q86G/Q94H/R138H/R169H/T345S). Put plainly: biochemical.
The target of another assay is A*0206 (Homo sapiens, UniProt P04439, D140Y/D185E/D98H/E176V/E277Q/F33Y/G131W/G231S/I119V/I121R/I166T/I218V/L300P/L318F/N151K/N90K/P208A/P217A/Q86G/Q94H/R138H/R169H/T345S). As to the kind of experiment: biochemical.
Assay [2] has as its system 0.221A2.1 cell line, peptide-loaded target. Put plainly: Primary in vitro CTL induction, 51Cr release against targets pulsed with the induction peptide. The note with it: Number of donors yielding a positive response/total tested; Table XXVIIb.

Structures are written as SMILES. Non-standard residues stand in square brackets, D forms with d. Residues, ends and D or L forms follow the SMILES beside them. Abu = CC[C@H](N)C(=O)O

One may read the IC50 as the concentration at which inhibition is half-maximal. A high value points to a need for much substance.

In the case of `CC[C@H](C)[C@H](NC(=O)[C@@H](NC(=O)[C@H](CC(C)C)NC(=O)[C@@H](NC(=O)[C@@H]1CCCN1C(=O)[C@H](CCCNC(=N)N)NC(=O)[C@H](CCCNC(=N)N)NC(=O)[C@H](CC(N)=O)NC(=O)[C@H](CCSC)NC(=O)CNC(=O)CNC(=O)[C@@H](N)CCSC)[C@@H](C)CC)[C@@H](C)O)C(=O)N[C@H](C(=O)N[C@H](C(=O)N[C@@H](CC(C)C)C(=O)O)[C@@H](C)O)[C@@H](C)CC` [p53.243], the half-inhibitory concentration (IC50) against DRB1*0401 and at DRB1*0701 was more than 10 µM in each case.

Consider `CC[C@H](NC(=O)[C@H](Cc1ccccc1)NC(=O)[C@H](CCSC)NC(=O)[C@@H](N)CCCCN)C(=O)N[C@@H](CCC(N)=O)C(=O)N[C@@H](CC(C)C)C(=O)N[C@@H](C)C(=O)N[C@@H](CCCCN)C(=O)N[C@H](C(=O)O)C(C)C` [p53.132B4V9] (H-KMF[Abu]QLAKV-OH), for which the “CTL Wild-type” value in assay [1] was 0/4. Also, the IC50 against A*0202 came out at 13 nM; against A*0203, 9.1 nM; against A*0206 it was 37 nM. In addition, the “CTL Peptide” value in assay [2] is listed as 5/5.

For `CC(C)C[C@H](NC(=O)[C@H](C)NC(=O)[C@H](CCCNC(=N)N)NC(=O)[C@@H](N)CCCCN)C(=O)N1CCC[C@H]1C(=O)N[C@@H](CC(N)=O)C(=O)N[C@@H](CC(N)=O)C(=O)N[C@H](C(=O)N[C@@H](CO)C(=O)N[C@@H](CO)C(=O)N[C@@H](CO)C(=O)N1CCC[C@H]1C(=O)N[C@@H](CCC(N)=O)C(=O)N1CCC[C@H]1C(=O)N[C@@H](CCCCN)C(=O)O)[C@@H](C)O` [p53.305], the IC50 at DRB1*0401 and on DRB1*0701 was more than 10 µM throughout.

For `CC[C@H](NC(=O)[C@H](Cc1ccccc1)NC(=O)[C@H](CCSC)NC(=O)[C@H](CCCCN)NC(=O)[C@H](CC(N)=O)NC(=O)[C@H](CC(C)C)NC(=O)[C@H](C)N)C(=O)N[C@@H](CCC(N)=O)C(=O)N[C@H](C(=O)O)C(C)C` [p53.129B7V9] (H-ALNKMF[Abu]QV-OH), the “CTL Wild-type” value in assay [1] is recorded as 0/3. Besides, the “CTL Peptide” value in assay [2] is listed as 2/4.

Consider `CC[C@H](C)[C@H](NC(=O)[C@H](CCC(N)=O)NC(=O)[C@H](CC(C)C)NC(=O)[C@@H](NC(=O)[C@H](Cc1ccccc1)NC(=O)[C@H](Cc1ccc(O)cc1)NC(=O)[C@H](CCC(=O)O)NC(=O)CNC(=O)[C@@H](N)CC(=O)O)[C@@H](C)O)C(=O)N[C@@H](CCCNC(=N)N)C(=O)NCC(=O)N[C@@H](CCCNC(=N)N)C(=O)N[C@@H](CCC(=O)O)C(=O)N[C@@H](CCCNC(=N)N)C(=O)N[C@@H](Cc1ccccc1)C(=O)O` [p53.324], for which the IC50 at DRB1*0401 and on DRB1*0701 was more than 10 µM in each case.
